Results published in patent US8344000B2, “Compounds which have activity at M1 receptor and their uses in medicine” (Glaxo Group Limited, priority 2007, dated 2013).

Molecular target: T1, human muscarinic M1 receptors (Homo sapiens, UniProt P11229)
T1 construct: expressed in transfected cells
T1 sequence (P11229 1-460): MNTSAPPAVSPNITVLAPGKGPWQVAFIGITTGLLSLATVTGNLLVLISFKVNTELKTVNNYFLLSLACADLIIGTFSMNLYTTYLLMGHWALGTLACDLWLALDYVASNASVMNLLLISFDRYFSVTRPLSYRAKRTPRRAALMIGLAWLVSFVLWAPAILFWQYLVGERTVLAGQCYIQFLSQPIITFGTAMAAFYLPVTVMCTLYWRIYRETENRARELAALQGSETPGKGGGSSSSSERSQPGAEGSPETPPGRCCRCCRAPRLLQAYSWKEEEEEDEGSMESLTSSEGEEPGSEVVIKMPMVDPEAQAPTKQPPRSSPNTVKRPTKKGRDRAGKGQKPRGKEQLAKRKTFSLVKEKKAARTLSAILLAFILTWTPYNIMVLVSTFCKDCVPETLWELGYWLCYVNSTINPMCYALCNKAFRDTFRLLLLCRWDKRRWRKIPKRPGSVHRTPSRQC
Assay: FLIPR experiments on M1 receptors (calcium response, CHO-M1 cells)
Format: cell-based
Conditions: tested for activity; assay and threshold not specified at the place
Description: FLIPR Experiments on M1 Receptors to Determine Agonist/Antagonist Potency
Compounds of the invention were characterized in a functional assay to determine their ability to activate the intracellular calcium pathway in CHO cells with stable expression of human muscarinic M1 receptors using FLIPR (Fluorometric Imaging Plate Reader) technology. Briefly, CHO-M1 cells were plated (15,000/well) and allowed to grow overnight at 37 degrees. Media were removed and 30 μL loading buffer (HBSS with 2.5 mM probenicid, 2 μM Fluo-4, 500 μM Brilliant Black, pH 7.4) was added. After incubation at 37 degrees for 90 minutes, 10 μL of the assay buffer (HBSS with 2.5 mM probenecid, pH 7.4) containing test compounds was added to each well on the FLIPR instrument. Calcium response was monitored to determine agonism. […] Calcium response was then monitored again to determine compound's antagonism to acetylcholine. […] Results were imported into ActivityBase data analysis suite (ID Business Solution Inc., Parsippany, N.J.) where the curves were analysed by non-linear curve fitting and the resulting pEC50/fpKi were calculated. The maximum asymptotes of agonist compounds were calculated as percentage of maximum FLIPR response induced by carbamoylcholine chloride added as control on the same compound plates.

With `Cl.O=C1Cc2ccccc2N1C1CCN(C2CCOCC2)CC1` [1-[1-(Tetrahydro-2H-pyran-4-yl)-4-piperidinyl]-1,3-dihydro-2H-indol-2-one hydrochloride] the activity was “below the threshold value”.
